Assay results taken from publication PMC6214630 (Biochimica et biophysica acta. General subjects, 2018).

Target: THB2 (Chlamydomonas reinhardtii, UniProt R9RZJ6)
Assay: UV-visible absorption
Type: binding
Settings: Fe(III) heme

Structure (SMILES) | UV-visible absorption | UV-visible absorption (excess imidazole)
CC(=O)O [acetate] | this protein, like THB1 and a small number of TrHbs | –
c1c[nH]cn1 [imidazole] | – | addition of excess imidazole to our preparations of THB2 nearly eliminates the discrepancies
